In patent US20240423992A1, “BIOMARKERS FOR TREATING LIVER DISORDERS WITH THR-B AGONISTS AND RELATED USES” (Madrigal Pharmaceuticals, Inc., priority 2023, published 2024):

System: adults with nonalcoholic fatty liver disease (NAFLD)/presumed nonalcoholic steatohepatitis (NASH)
Assay: 52-week Phase 3 trial (Example 1): sex hormone levels
Format: in vivo, human
Settings: Week 52
Method: A 52-week randomized, double-blind, placebo-controlled Phase 3 trial was conducted to evaluate the safety and effect of resmetirom, an oral, once-daily, liver-targeted thyroid hormone receptor-β selective agonist, on multiple biomarkers in adults with nonalcoholic fatty liver disease (NAFLD)/presumed nonalcoholic steatohepatitis (NASH). Patients were randomized to three double-blind arms (100 mg resmetirom, 80 mg resmetirom, or placebo) or one open-label arm (100 mg resmetirom). Common concomitant medications across the 4 arms were antidiabetes drugs (such as glucagon-like peptide-1 receptor agonists (GLP-1 RAs), metformin, pioglitazone, and sodium/glucose cotransporter-2 inhibitors (SGLT2i)) and drugs to manage dyslipidemia (statins).
Sex hormone levels after 52 weeks of resmetirom treatment are shown in Table A. Thyroid hormone levels after 52 weeks of resmetirom treatment are reported in Table B.

[1] = Resmetirom 80 mg DB vs Placebo DB
[2] = Resmetirom 100 mg DB vs Placebo DB

## CC(C)c1cc(Oc2c(Cl)cc(-n3nc(C#N)c(=O)[nH]c3=O)cc2Cl)n[nH]c1=O [Resmetirom, 2-[3,5-dichloro-4-[(6-oxo-5-propan-2-yl-1H-pyridazin-3-yl)oxy]phenyl]-3,5-dioxo-1,2,4-triazine-6-carbonitrile]
[1]
  Estradiol (female) LSM Difference: 7.1 ng/L
  Estradiol (male) LSM Difference: 4.8 ng/L
  FSH (female) LSM Difference: −1.1 IU/L
  FSH (male) LSM Difference: 0.2 IU/L
  Free testosterone (female) LSM Difference: 0.0002 µg/L
  Free testosterone (male) LSM Difference: 0.0115 µg/L
  LH (female) LSM Difference: −0.9 IU/L
  LH (male) LSM Difference: 0.4 IU/L
  SHBG (female) LSM Difference in % CFB: 119.5%
  SHBG (female) LSM Difference in CFB: 39.9 nmol/L
  SHBG (male) LSM Difference in % CFB: 69.7%
  SHBG (male) LSM Difference in CFB: 24.5 (3.9) nmol/L
  SHBG LSM Difference in % CFB: 96.0%
  SHBG LSM Difference in CFB: 32.1 nmol/L
  Testosterone (female) LSM Difference: 0.1 µg/L
  Testosterone (male) LSM Difference: 1.5 µg/L
Resmetirom 80 mg DB
  Estradiol (female) LSM CFB: 5.0 ng/L
  Estradiol (male) LSM CFB: 3.3 ng/L
  FSH (female) LSM CFB: 0.9 IU/L
  FSH (male) LSM CFB: 0.3 IU/L
  Free testosterone (female) LSM CFB: 0.0004 µg/L
  Free testosterone (male) LSM CFB: 0.0077 µg/L
  LH (female) LSM CFB: 0.8 IU/L
  LH (male) LSM CFB: 0.4 IU/L
  SHBG (female) LSM % CFB: 133.0%
  SHBG (female) LSM CFB: 43.3 nmol/L
  SHBG (male) LSM % CFB: 67.1%
  SHBG (male) LSM CFB: 21.9 nmol/L
  SHBG LSM % CFB: 99.6%
  SHBG LSM CFB: 32.7 nmol/L
  Testosterone (female) LSM CFB: 0.1 µg/L
  Testosterone (male) LSM CFB: 1.4 µg/L
[2]
  Estradiol (female) LSM Difference: 9.5 ng/L
  Estradiol (male) LSM Difference: 10.4 ng/L
  FSH (female) LSM Difference: −0.4 IU/L
  FSH (male) LSM Difference: 0.5 IU/L
  Free testosterone (female) LSM Difference: -0.0006 µg/L
  Free testosterone (male) LSM Difference: 0.0029 µg/L
  LH (female) LSM Difference: −0.5 IU/L
  LH (male) LSM Difference: 0.8 IU/L
  SHBG (female) LSM Difference in % CFB: 184.0%
  SHBG (female) LSM Difference in CFB: 61.8 nmol/L
  SHBG (male) LSM Difference in % CFB: 125.5%
  SHBG (male) LSM Difference in CFB: 41.7 (3.8) nmol/L
  SHBG LSM Difference in % CFB: 157.5%
  SHBG LSM Difference in CFB: 52.4 nmol/L
  Testosterone (female) LSM Difference: 0.1 µg/L
  Testosterone (male) LSM Difference: 2.1 µg/L
Resmetirom 100 mg DB
  Estradiol (female) LSM CFB: 7.5 ng/L
  Estradiol (male) LSM CFB: 8.9 ng/L
  FSH (female) LSM CFB: 1.6 IU/L
  FSH (male) LSM CFB: 0.6 IU/L
  Free testosterone (female) LSM CFB: -0.0003 µg/L
  Free testosterone (male) LSM CFB: -0.0009 µg/L
  LH (female) LSM CFB: 1.2 IU/L
  LH (male) LSM CFB: 0.9 IU/L
  SHBG (female) LSM % CFB: 197.6%
  SHBG (female) LSM CFB: 65.3 nmol/L
  SHBG (male) LSM % CFB: 122.9%
  SHBG (male) LSM CFB: 39.2 nmol/L
  SHBG LSM % CFB: 161.1%
  SHBG LSM CFB: 53.0 nmol/L
  Testosterone (female) LSM CFB: 0.1 µg/L
  Testosterone (male) LSM CFB: 2.0 µg/L
Resmetirom 100 mg OL
  Estradiol (female) LSM CFB: 11.0 ng/L
  Estradiol (male) LSM CFB: 11.7 ng/L
  FSH (female) LSM CFB: 1.3 IU/L
  FSH (male) LSM CFB: 0.6 IU/L
  Free testosterone (female) LSM CFB: -0.0006 µg/L
  Free testosterone (male) LSM CFB: 0.024 µg/L
  LH (female) LSM CFB: −0.0 IU/L
  LH (male) LSM CFB: 0.3 IU/L
